Data on nine compounds can be found in ChEMBL document CHEMBL4418302, “C-myc ligands capable of dimerizing in an aqueous solution, and methods of using same” (2016).

Calls of active or inactive are those of the source. No cut-off for these calls is given here.

Assay [1] has as its target Myc proto-oncogene protein (Homo sapiens, UniProt P01106). As to the kind of experiment: Binding affinity to recombinant full-length DDK-tagged human c-Myc expressed in HEK293T cells assessed as inhibition of Max/c-Myc protein-protein interaction incubated for 1 hr by ELISA. The class given is cell-based. In general terms: In an ELISA, binding on a coated surface is turned into a signal by an enzyme label.

Assay [2] has as its system Daudi. As to the kind of experiment: Antiproliferative activity against human Daudi cells incubated for 3 days by Cell-Titer 96 aqueous one solution cell proliferation assay. The class given is functional, cell-based. To be noted: 72 h.
Assay [3] has as its system MV4-11. As to the kind of experiment: Antiproliferative activity against human MV411 cells incubated for 3 days by Cell-Titer 96 aqueous one solution cell proliferation assay. Type of assay: functional, cell-based. To be noted: MV4-11, 72 h.
The subject of assay [4] is MV4-11. The experiment in a line: Antiproliferative activity against human MV411 cells up to 30 uM incubated for 3 days by Cell-Titer 96 aqueous one solution cell proliferation assay. The class given is functional, cell-based.
In assay [5] the test system is Daudi. The experiment in a line: Antiproliferative activity against human Daudi cells up to 30 uM incubated for 3 days by Cell-Titer 96 aqueous one solution cell proliferation assay. Type of assay: functional, cell-based.
Assay [6] has as its system K562. The experiment in a line: Antiproliferative activity against human K562 cells incubated for 3 days by Cell-Titer 96 aqueous one solution cell proliferation assay. The settings on record: K562, 72 h. The class given is functional, cell-based.
For assay [7], the system named is K562. As to the kind of experiment: Antiproliferative activity against human K562 cells up to 30 uM incubated for 3 days by Cell-Titer 96 aqueous one solution cell proliferation assay. The class given is functional, cell-based.

Chain of Myc proto-oncogene protein (P01106 whole entry): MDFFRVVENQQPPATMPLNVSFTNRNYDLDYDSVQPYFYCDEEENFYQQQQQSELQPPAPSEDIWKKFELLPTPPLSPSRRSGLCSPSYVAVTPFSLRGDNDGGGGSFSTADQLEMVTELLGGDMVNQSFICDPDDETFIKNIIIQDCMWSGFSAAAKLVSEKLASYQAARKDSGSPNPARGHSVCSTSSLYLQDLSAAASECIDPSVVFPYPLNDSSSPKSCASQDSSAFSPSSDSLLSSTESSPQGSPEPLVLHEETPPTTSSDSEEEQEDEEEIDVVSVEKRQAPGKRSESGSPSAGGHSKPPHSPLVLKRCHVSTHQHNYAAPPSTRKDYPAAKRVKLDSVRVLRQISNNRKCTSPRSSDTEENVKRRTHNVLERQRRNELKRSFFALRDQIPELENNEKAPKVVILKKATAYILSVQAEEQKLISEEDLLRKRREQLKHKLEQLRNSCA

The IC50 is the concentration that gives 50% inhibition. `CCc1ccc(/C=C2\SC(=O)N(CCNC(=O)[C@H]3C[C@H]4C=C[C@@H]3C4)C2=O)cc1`: in assay [1], the IC50 was over 30 µM.

As for `NC(=O)c1ccccc1Nc1ccc([N+](=O)[O-])c2nonc12`, the IC50 in assay [1] was over 30 µM.

For the compound `CCc1ccc(/C=C2\SC(=O)N(CC[C@H]3C[C@H]4C=C[C@@H]3C4)C2=O)cc1` (single isomer, unassigned), in assay [1], the IC50 is over 30 µM.

Turning to `CCc1ccc(/C=C2\SC(=O)N(CCNC(=O)[C@H]3C[C@@H]4C[C@H]3[C@@H](O)[C@H]4O)C2=O)cc1`, the IC50 (in assay [1]; in the assay with Daudi [2]; with MV4-11 [3]; with K562 [6]) was over 30 µM throughout. Moreover, the result in the assay on MV4-11 [4], with Daudi [5] and in the assay on K562 [7] was inactive.

For `CCc1ccc(/C=C2\SC(=O)NC2=O)cc1`, the IC50 in assay [1] is over 30 µM.

For `O=C(NCc1ccc(B(O)O)cc1)c1ccc(Nc2ccc([N+](=O)[O-])c3nonc23)cc1`, the outcome in the assay with MV4-11 [4], in the assay with Daudi [5] and in the assay on K562 [7] was inactive.

Turning to `O=C(NCc1cccc(B(O)O)c1)c1ccccc1Nc1ccc([N+](=O)[O-])c2nonc12`, the IC50 in the assay with Daudi [2], in the assay on MV4-11 [3] and in the assay on K562 [6] was over 30 µM throughout. For the same compound, the result in the assay with MV4-11 [4], in the assay with Daudi [5] and in the assay with K562 [7] was inactive.

`O=C(NCc1ccc(B(O)O)cc1)c1ccccc1Nc1ccc([N+](=O)[O-])c2nonc12`: the IC50 (in assay [1]; in the assay with Daudi [2]; with MV4-11 [3]; in the assay on K562 [6]) was over 30 µM in each case. In addition, the result with MV4-11 [4], in the assay with Daudi [5] and in the assay with K562 [7] was inactive.

In the case of `CCc1ccc(/C=C2\SC(=O)N(CC[C@H]3C[C@@H]4C[C@H]3[C@@H](O)[C@H]4O)C2=O)cc1`, the IC50 in assay [1] is over 30 µM.
